Patent US6465501B2, “Azolidines as β3 adrenergic receptor agonists” (Wyeth, priority 2000, dated 2002)
Structures can show the parent of a compound that is named as a salt.

| Compound | melting point |
| --- | --- |
| O=C1NC(=O)C(Nc2ccc(CCNC[C@H](O)COc3ccc4ccccc4c3)cc2)S1 (stereo partly shown) (hydrate or solvate) [Example 21, 5-(4-{2-[(2 S)-2-Hydroxy-3-(naphthalen-2-yloxy)-propylamino]-ethyl}-phenylamino)-thiazolidine-2,4-dione] | 90 to 91 °C |
| O=C1NC(=O)C(Nc2ccc(CCNC[C@H](O)COc3ccc(Oc4ccccc4)cc3)cc2)S1 (stereo partly shown) (as salt: salt) [Example 1, 5-[4-(2-{[(2 S)-2-Hydroxy-3-(4-phenoxyphenoxy)propyl]amino}ethyl)anilino]-1,3-thiazolidine-2,4-dione] | 72 to 74 °C |
| CN1C(=O)SC(Nc2ccc(CCNC[C@H](O)COc3ccc(OCc4ccccc4)cc3)cc2)C1=O (stereo partly shown) (as salt: HBr) [Example 2, 5-{4-[2-({(2 S)-3-[4-(Benzyloxy}phenoxy]-2-hydroxypropyl}amino)ethyl]anilino}-3-methyl-1,3-thiazolidine-2,4-dione] | 165 to 167 °C |
| O=C1NC(=O)C(Nc2ccc(CCNC[C@H](O)COc3ccc(F)cc3)cc2)S1 (stereo partly shown) (as salt: salt) (hydrate or solvate) [Example 8, 5-[4-(2-{[(2 S)-3-(4-Fluorophenoxy)-2-hydroxypropyl]amino}ethyl)anilino]-1,3-thiazolidine-2,4-dione] | 55 °C |
| O=C1NC(=O)C(Nc2ccc(CCNC[C@H](O)COc3ccc4c(c3)OCO4)cc2)S1 (stereo partly shown) (hydrate or solvate) [Example 24, 5-(4-{2-[(2 S)-3-(Benzo[1,3]dioxol-5-yloxy)-2-hydroxy-propylamino]-ethyl}-phenylamino)-thiazolidine-2,4-dione] | 65 °C (dec.) |
| CN(c1ccc(CCNC[C@H](O)COc2ccc(OCc3ccccc3)cc2)cc1)C1SC(=O)NC1=O (stereo partly shown) (as salt: salt) [Example 26, 5-[(4-{2-[(2 S)-3-(4-Benzyloxy-phenoxy)-2-hydroxy-propylamino]-ethyl}-phenyl)-methyl-amino]-thiazolidine-2,4-dione] | 51 to 53 °C |
| O=C1NC(=O)C(N(Cc2ccc(Br)cc2)c2ccc(CCNC[C@H](O)COc3ccc(O)cc3)cc2)S1 (stereo partly shown) (hydrate or solvate) [Example 28, 5-[(4-Bromo-benzyl)-(4-{2-[(2 S)-2-hydroxy-3-(4-hydroxy-phenoxy)-propylamino]-ethyl}-phenyl)-amino]-thiazolidine-2,4-dione] | 79 °C (dec.) |
| O=C1NC(=O)C(Nc2ccc(CCNC[C@H](O)c3cccnc3)cc2)S1 (stereo partly shown) (hydrate or solvate) [Example 31, 5-{4-[2-((2 R)-2-Hydroxy-2-pyridin-3-yl-ethylamino)-ethyl]-phenylamino}-thiazolidine-2,4-dione] | 65 to 67 °C |
| O=C1NC(=O)C(Nc2ccc(CCNC[C@H](O)c3ccccc3)cc2)S1 (stereo partly shown) (as salt: salt) [Example 7, 5-[4-(2-{[(2 R)-2-Hydroxy-2-phenylethyl]amino}ethyl)anilino]-1,3-thiazolidine-2,4-dione] | 55 °C |
| O=C1NC(=O)C(N(CC#Cc2ccc(F)cc2)c2ccc(CCNC[C@H](O)COc3ccc(OCc4ccccc4)cc3)cc2)S1 (stereo partly shown) (hydrate or solvate) [Example 27, 5-[(4-{2-[(2 S)-3-(4-Benzyloxy-phenoxy)-2-hydroxy-propylamino]-ethyl}-phenyl)-[3-(4-fluoro-phenyl)-prop-2-ynyl]-amino}-thiazolidine-2,4-dione] | 99 to 101 °C |
| O=C1NC(=O)C(Nc2ccc(CCNC[C@@H](O)COc3cccc4[nH]c(=O)[nH]c34)cc2)S1 (stereo partly shown) (as salt: salt) [Example 19, 5-{4-[2-({(2 R)-2-Hydroxy-3-[(2-oxo-2,3-di hydro-1 H-benzimidazol-4-yl)oxy]propyl}amino)ethyl]anilino}-1,3-thiazolidine-2,4-dione] | 172 °C |
| CC(Cc1ccc(NC2SC(=O)NC2=O)cc1)NC[C@H](O)c1cccc(Cl)c1 (stereo partly shown) (as salt: salt) (hydrate or solvate) [Example 18, 5-[4-(2-{[(2 R)-2-(3-Chlorophenyl)-2-hydroxyethyl]amino}propyl)anilino]-1,3-thiazolidine-2,4-dione] | 83 to 85 °C |

Results, then the compound that gave them:

| melting point | Compound |
| --- | --- |
| 129 to 131 °C | CN1C(=O)SC(Nc2ccc(CCNC[C@H](O)c3cccc(Cl)c3)cc2)C1=O (stereo partly shown) [Example 3, 5-[4-(2-{[(2 R)-2-(3-Chlorophenyl)-2-hydroxyethyl]amino}ethyl)anilino]-3-methyl-1,3-thiazolidine-2,4-dione] |
| 50 to 52 °C | O=C1NC(=O)C(N(Cc2ccc(Br)cc2)c2ccc(CCNC[C@H](O)COc3ccc(OCc4ccccc4)cc3)cc2)S1 (stereo partly shown) (as salt: salt) [Example 25, 5-[(4-{2-[(2 S)-3-(4-Benzyloxy-phenoxy)-2-hydroxy-propylamino]-ethyl}-phenyl)-(4-bromo-benzyl)-amino]-thiazolidine-2,4-dione] |
| 56 °C | COc1ccc(OC[C@@H](O)CNCCc2ccc(NC3SC(=O)NC3=O)cc2)cc1 (stereo partly shown) (as salt: salt) (hydrate or solvate) [Example 10, 5-[4-(2-{[(2 S)-2-Hydroxy-3-(4-methoxyphenoxy)propyl]amino}ethyl)anilino]-1,3-thiazolidine-2,4-dione] |
| 52 to 54 °C | O=C1NC(=O)C(N(Cc2ccc(Br)cc2)c2ccc(CCNC[C@H](O)COc3ccccc3)cc2)S1 (stereo partly shown) (hydrate or solvate) [Example 29, 5-((4-Bromo-benzyl)-{4-[2-((2 S)-2-hydroxy-3-phenoxy-propylamino)-ethyl]-phenyl}-amino)-thiazolidine-2,4-dione] |
| 65 °C | O=C1NC(=O)C(Nc2ccc(CCNC[C@H](O)COc3cccc(O)c3)cc2)S1 (stereo partly shown) (as salt: salt) (hydrate or solvate) [Example 12, 5-[4-(2-{[(2 S)-2-Hydroxy-3-(3-hydroxyphenoxy)propyl]amino}ethyl)anilino]-1,3-thiazolidine-2,4-dione] |
| 140 °C | O=C1NC(=O)C(Nc2ccc(CCNC[C@H](O)COc3cccc4[nH]c5ccccc5c34)cc2)S1 (stereo partly shown) (as salt: salt) (hydrate or solvate) [Example 13, 5-[4-(2-{[(2 S)-3-(9 H-Carbazol-4-yloxy)-2-hydroxypropyl]amino}ethyl)anilino]-1 ,3-thiazolidine-2,4-dione] |
| 58 °C | CN(c1ccc(CCNC[C@H](O)COc2ccccc2)cc1)C1SC(=O)NC1=O (stereo partly shown) (as salt: salt) (hydrate or solvate) [Example 17, 5-[4-(2-{[(2 S)-2-Hydroxy-3-phenoxypropyl]amino}ethyl)(methyl)anilino]-1,3-thiazolidine-2,4-dione.] |
| 50 °C | O=C1NC(=O)C(Nc2ccc(CCNC[C@H](O)COc3ccc4occc4c3)cc2)S1 (stereo partly shown) (as salt: salt) (hydrate or solvate) [Example 15, 5-[4-(2-{[(2 S)-3-(1-Benzofuran-5-yloxy)-2-hydroxypropyl]amino}ethyl)anilino]-1,3-thiazolidine-2,4-dione] |
| 55 °C | O=C1NC(=O)C(Nc2ccc(CCNC[C@H](O)COc3ccccc3)cc2)S1 (stereo partly shown) (as salt: salt) (hydrate or solvate) [Example 9, 5-[4-(2-{[(2 S)-2-Hydroxy-3-phenoxypropyl]amino}ethyl)anilino]-1,3-thiazolidine-2,4-dione] |
| 130 °C | CS(=O)(=O)Nc1cc([C@H](O)CNCCc2ccc(NC3SC(=O)NC3=O)cc2)ccc1O (stereo partly shown) (as salt: salt) (hydrate or solvate) [Example 14, N{5-[(1 S)-2-({4-[(2,4-Dioxo-1,3-thiazolidin-5-yl)amino]phenethyl}amino)-1-hydroxyethyl]-2-hydroxyphenyl}methanesulfonamide] |
| 46 to 48 °C | O=C1NC(=O)C(Nc2ccc(CCNC[C@@H](O)c3cccnc3)cc2)S1 (stereo partly shown) (hydrate or solvate) [Example 30, 5-{4-[2-((2 S)-2-Hydroxy-2-pyridin-3-yl-ethylamino)-ethyl]-phenylamino}-thiazolidine-2,4-dione] |
| 61 to 62 °C | O=C1NC(=O)C(Nc2ccc(CCNCC(O)COc3cccc4ccccc34)cc2)S1 (stereo not shown) (hydrate or solvate) [Example 23, 5-(4-{2-[2-Hydroxy-3-(naphthalen-1-yloxy)-propylamino]-ethyl}-phenylamino)-thiazolidine-2,4-dione] |
| 70 to 71 °C | O=C1NC(=O)C(Nc2ccc(CCNC[C@H](O)COc3ccc(-c4ccccc4)cc3)cc2)S1 (stereo partly shown) [Example 22, 5-(4-{2-[(2 S)-3-(Biphenyl-4-yloxy)-2-hydroxy-propylamino]-ethyl}-phenylamino)-thiazolidine-2,4-dione] |
